Measured values as given in patent publication US9765018B2, “IDO inhibitors” (BRISTOL-MYERS SQUIBB COMPANY, priority 2013, dated 2017).

Key:
[1] = molecular target: T1, IDO (Homo sapiens (Human), UniProt P14902); experiment: LLE_IDO_ABS_DR (IDO assay, method not described)
[2] = molecular target: Human IDO1 (Homo sapiens (Human), UniProt P14902); experiment: IDO Kynurenine Assay with Human IDO1/HEK293 Cells; type: cell-based; conditions: HEK293 cells with human IDO1; read-out: HEK human IDO-1 (IC50)
Chain of Human IDO1 (P14902 whole entry): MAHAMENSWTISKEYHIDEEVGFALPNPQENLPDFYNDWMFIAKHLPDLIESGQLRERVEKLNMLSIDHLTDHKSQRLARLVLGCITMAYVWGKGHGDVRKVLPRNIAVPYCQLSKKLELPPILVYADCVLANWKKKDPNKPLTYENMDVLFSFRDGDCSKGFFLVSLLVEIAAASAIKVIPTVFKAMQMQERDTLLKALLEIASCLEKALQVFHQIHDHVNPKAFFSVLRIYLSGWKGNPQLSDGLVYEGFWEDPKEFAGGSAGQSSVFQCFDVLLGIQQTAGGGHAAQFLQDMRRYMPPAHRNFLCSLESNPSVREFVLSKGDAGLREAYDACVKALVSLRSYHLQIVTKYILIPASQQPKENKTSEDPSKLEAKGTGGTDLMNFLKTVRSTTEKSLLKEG
Protocol: IDO Kynurenine Assay with Human IDO1/HEK293 Cells
Human IDO1/HEK293 cells were seeded at 10,000 cells per 50 uL per well with RPMI/phenol red free media contains 10% FBS in a 384-well black wall clear bottom tissue culture plate (Matrix Technologies LLC) 125 nL of certain concentration of compound was then added to each well using ECHO liquid handling systems. The cells were incubated for 20 hours in 37° C. incubator with 5% CO2.
The compound treatments were stopped by adding Trichloroacetic Acid (Sigma-Aldrich) to a final concentration at 0.2%. The cell plate was further incubated at 50° C. for 30 minute. The equal volume supernatant (20 uL) and 0.2% (w/v) Ehrlich reagent (4-dimethylaminobenzaldehyde, Sigma-Aldrich) in glacial acetic acid were mixed in a new clear bottom 384-well plate. This plate was then incubated at room temperature for 30 minute. The absorbance at 490 nm was measured on Envision plate reader.

[3] = molecular target: T1, IDO; experiment: Kynurenine assay in IFN-γ-stimulated Hela cells; type: cell-based; conditions: 20 h, read-out: Hela Kyurenine (IC50)
Method in brief: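 Hela cells adhered 5-6 h, then received inhibitor (top dose 30 μM, 3-fold dilutions to 1.5 nM) plus 100 ng/mL human IFN-γ to induce IDO, 20 h at 37° C. TCA added, 30 min at 50° C hydrolyses N-formylkynurenine to kynurenine. Supernatant mixed with Ehrlich reagent, 10 min RT, absorbance 490 nm.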

T1 sequence (P14902 whole entry): as above

SMILES | IC50 [1] | IC50 [2] | IC50 [3]
COc1ccc(-c2ccc(Oc3ccccc3C(C)(C)C)c(NC(=O)Nc3ccccc3C(F)(F)F)c2)cc1C(=O)O [Example 46, 4′-(2-tert-butylphenoxy)-4-methoxy-3′-(3-(2-(trifluoromethyl)phenyl)ureido)biphenyl-3-carboxylic acid] | 0.32 µM | 0.54 µM | 0.05 µM
COc1ccc(-c2ccc(Oc3ccccc3C(C)C)c(NC(=O)Nc3ccc(C)cc3)c2)cc1C(=O)O [Example 63, 4′-(2-isopropylphenoxy)-4-methoxy-3′-(3-p-tolylureido)biphenyl-3-carboxylic acid] | 1.61 µM | 1.6 µM | 0.39 µM
COc1ccc(-c2ccc(Oc3ccccc3C)c(NC(=O)Nc3ccc(C)cc3)c2)cc1C(=O)O [Example 73, 4-methoxy-4′-(o-tolyloxy)-3′-(3-p-tolylureido)biphenyl-3-carboxylic acid] | 1.57 µM | 2.97 µM | 0.84 µM
COc1ccc(-c2ccc(Oc3ccccc3C(C)(C)C)c(NC(=O)Nc3ccc(Cl)cc3Cl)c2)cc1C(=O)O [Example 103, 4′-(2-(tert-butyl)phenoxy)-3′-(3-(2,4-dichlorophenyl)ureido)-4-methoxy-[1,1′-biphenyl]-3-carboxylic acid] | 0.47 µM | 1.31 µM | 0.09 µM
COc1ccc(-c2ccc(Oc3cccc4c3CCCC4)c(NC(=O)Nc3cccc(C)c3)c2)cc1C(=O)O [Example 116, 4-methoxy-4′-(5,6,7,8-tetrahydronaphthalen-1-yloxy)-3′-(3-m-tolylureido)biphenyl-3-carboxylic acid] | 0.78 µM | 0.79 µM | 0.1 µM
COc1ccc(-c2ccc(Oc3cccc(C)c3C)c(NC(=O)Nc3ccccc3Cl)c2)cc1C(=O)O [Example 120, 3′-(3-(2-chlorophenyl)ureido)-4′-(2,3-dimethylphenoxy)-4-methoxybiphenyl-3-carboxylic acid] | 0.43 µM | 0.26 µM | 0.08 µM
COc1ccc(-c2ccc(Oc3ccccc3C3CC3)c(NC(=O)Nc3ccc(C)cc3)c2)cc1C(=O)O [Example 127, 4′-(2-cyclopropylphenoxy)-4-methoxy-3′-(3-p-tolylureido)biphenyl-3-carboxylic acid] | 2.43 µM | 3.29 µM | 0.49 µM
C#CCOc1cccc(Oc2ccc(-c3ccc(OC)c(C(=O)O)c3)cc2NC(=O)Nc2ccccc2Cl)c1C [Example 136, 3′-(3-(2-chlorophenyl)ureido)-4-methoxy-4′-(2-methyl-3-(prop-2-ynyloxy)phenoxy)biphenyl-3-carboxylic acid] | 0.14 µM | 0.07 µM | 0.02 µM
C#CCOc1cccc(Oc2ccc(-c3ccc(OC)c(C(=O)O)c3)cc2NC(=O)Nc2ccc(C)cc2)c1C [Example 141, 4-methoxy-4′-(2-methyl-3-(prop-2-ynyloxy)phenoxy)-3′-(3-p-tolylureido)biphenyl-3-carboxylic acid] | 0.33 µM | 0.42 µM | 0.05 µM
COc1ccc(-c2ccc(Oc3cccc4c3CCC4)c(NC(=O)Nc3ccccc3C)c2)cc1C(=O)O [Example 143, 4′-(2,3-dihydro-1H-inden-4-yloxy)-4-methoxy-3′-(3-o-tolylureido)biphenyl-3-carboxylic acid] | 0.2 µM | 0.53 µM | 0.05 µM
COc1ccc(-c2ccc(Oc3ccc4c(c3)CCCC4)c(NC(=O)Nc3ccc(C)cc3)c2)cc1C(=O)O [Example 148, 4-methoxy-4′-(5,6,7,8-tetrahydronaphthalen-2-yloxy)-3′-(3-p-tolylureido)biphenyl-3-carboxylic acid] | 0.49 µM | 2.42 µM | 0.26 µM

Now from value to compound:

IC50 [1] | IC50 [2] | IC50 [3] | SMILES
0.78 µM | 2.33 µM | 0.33 µM | CCCc1ccccc1Oc1ccc(-c2ccc(OC)c(C(=O)O)c2)cc1NC(=O)Nc1ccc(C)cc1 [Example 77, 4-methoxy-4′-(2-propylphenoxy)-3′-(3-p-tolylureido)biphenyl-3-carboxylic acid]
0.13 µM | 0.42 µM | 0.06 µM | COc1ccc(-c2ccc(Oc3ccccc3C(C)(C)C)c(NC(=O)Nc3ccccc3F)c2)cc1C(=O)O [Example 79, 4′-(2-(tert-butyl)phenoxy)-3′-(3-(2-fluorophenyl)ureido)-4-methoxy-[1,1′-biphenyl]-3-carboxylic acid]
0.88 µM | 1.66 µM | 0.69 µM | COc1ccc(-c2ccc(Oc3cccc(C(C)(C)C)c3)c(NC(=O)Nc3ccc(C)cc3)c2)cc1C(=O)O [Example 113, 4′-(3-tert-butylphenoxy)-4-methoxy-3′-(3-p-tolylureido)biphenyl-3-carboxylic acid]
0.1 µM | 0.12 µM | 0.02 µM | COc1ccc(-c2ccc(Oc3cccc4c3CCCC4)c(NC(=O)Nc3ccccc3Cl)c2)cc1C(=O)O [Example 114, 3′-(3-(2-chlorophenyl)ureido)-4-methoxy-4′-(5,6,7,8-tetrahydronaphthalen-1-yloxy)biphenyl-3-carboxylic acid]
0.2 µM | 0.24 µM | 0.05 µM | COc1ccc(-c2ccc(Oc3cccc4c3CCCC4)c(NC(=O)Nc3ccccc3C)c2)cc1C(=O)O [Example 115, 4-methoxy-4′-(5,6,7,8-tetrahydronaphthalen-1-yloxy)-3′-(3-o-tolylureido)biphenyl-3-carboxylic acid]
0.25 µM | 0.66 µM | 0.08 µM | COc1ccc(-c2ccc(Oc3cccc(C)c3C)c(NC(=O)Nc3cccc(C)c3)c2)cc1C(=O)O [Example 122, 4′-(2,3-dimethylphenoxy)-4-methoxy-3′-(3-m-tolylureido)biphenyl-3-carboxylic acid]
0.73 µM | 0.68 µM | 0.16 µM | COc1ccc(-c2ccc(Oc3cccc(C)c3C)c(NC(=O)Nc3ccc(C)cc3)c2)cc1C(=O)O [Example 123, 4′-(2,3-dimethylphenoxy)-4-methoxy-3′-(3-p-tolylureido)biphenyl-3-carboxylic acid]
0.3 µM | 0.29 µM | 0.07 µM | COc1ccc(-c2ccc(Oc3cccc4ccccc34)c(NC(=O)Nc3ccccc3C)c2)cc1C(=O)O [Example 129, 4-methoxy-4′-(naphthalen-1-yloxy)-3′-(3-o-tolylureido)biphenyl-3-carboxylic acid]
0.77 µM | 0.77 µM | 0.16 µM | COc1ccc(-c2ccc(Oc3cccc4ccccc34)c(NC(=O)Nc3ccc(C)cc3)c2)cc1C(=O)O [Example 131, 4-methoxy-4′-(naphthalen-1-yloxy)-3′-(3-p-tolylureido)biphenyl-3-carboxylic acid]
0.16 µM | 0.38 µM | 0.04 µM | COc1ccc(-c2ccc(Oc3cccc4c3CCC4)c(NC(=O)Nc3ccccc3Cl)c2)cc1C(=O)O [Example 142, 3′-(3-(2-chlorophenyl)ureido)-4′-(2,3-dihydro-1H-inden-4-yloxy)-4-methoxybiphenyl-3-carboxylic acid]
0.79 µM | 1.59 µM | 0.28 µM | COc1ccc(-c2ccc(Oc3cccc4c3CCC4)c(NC(=O)Nc3ccc(C)cc3)c2)cc1C(=O)O [Example 145, 4′-(2,3-dihydro-1H-inden-4-yloxy)-4-methoxy-3′-(3-p-tolylureido)biphenyl-3-carboxylic acid]
